Results taken from patent US11999676B2, “Vesicular monoamine transporter-2 ligands and their use in the treatment of psychostimulant abuse” (priority 2016, dated 2024).
Like-named read-outs stand apart in the source and are kept apart here.

Tests used:
[1] = target: T1, VMAT2 (Rattus norvegicus (Rat), UniProt Q01827); conditions: rat brain synaptic vesicles; read-out: [3H]DTBZ binding (Ki) VMAT2
[2] = target: T1, VMAT2; experiment: [3H]Dopamine ([3H]DA) uptake assay, vesicular preparation; assay type: biochemical
[3] = target: hERG channel (Homo sapiens (Human), UniProt Q12809); experiment: [3H]Dofetilide binding assay, HEK-293 cell membrane preparation; conditions: [3H]dofetilide, HEK-293 cell membranes; read-out: hERG Binding: Mean Ki ± Standard Deviation
Description: [^3H]Dofetilide binding assays were conducted using commercially available HEK-293 cell membranes which stably express the hERG channel. Membranes were suspended in assay buffer (50 mM Tris, 10 mM KCl, 1 mM MgCl2, pH 7.4) prior to the experiment. […] Aliquots of the HEK-293 cell membrane suspension which contained 5 μg membrane protein were added to tubes containing assay buffer, 5 nM [^3H]dofetilide and a range of concentrations of analog (10 nM-100 μM). Nonspecific binding was determined in the presence of amitriptyline (1 mM). Samples were incubated for 1 hr. at 24° C., followed by rapid filtration. […] The affinity for the [^3H]dofetilide binding site on the hERG channel expressed in the HEK-293 cellular membrane was determined from the analog concentration response curves.

[4] = Microsomal stability assay, human liver microsomes; conditions: for CLint scaled at 0.08 µM / half-life at 0.08 µM: both, human, pooled liver microsomes; for CLint scaled at 0.08 µM: pH 7.4, Microsomal stability assays: Clearance; for half-life at 0.08 µM: pH 7.4, Microsomal stability assays: Half-life
[5] = in vitro; conditions: both, human, microsomes, pH 7.4, Microsomal stability assays: Clearance
[6] = rat striatal synaptic vesicles, read-out: [3H]DA uptake (Ki) VMAT2
[7] = [3H]DA uptake, rat, read-out: VMAT2 (rat) Inhibition: Mean Ki ± Standard Deviation

Sequence of hERG channel (Q12809 whole entry): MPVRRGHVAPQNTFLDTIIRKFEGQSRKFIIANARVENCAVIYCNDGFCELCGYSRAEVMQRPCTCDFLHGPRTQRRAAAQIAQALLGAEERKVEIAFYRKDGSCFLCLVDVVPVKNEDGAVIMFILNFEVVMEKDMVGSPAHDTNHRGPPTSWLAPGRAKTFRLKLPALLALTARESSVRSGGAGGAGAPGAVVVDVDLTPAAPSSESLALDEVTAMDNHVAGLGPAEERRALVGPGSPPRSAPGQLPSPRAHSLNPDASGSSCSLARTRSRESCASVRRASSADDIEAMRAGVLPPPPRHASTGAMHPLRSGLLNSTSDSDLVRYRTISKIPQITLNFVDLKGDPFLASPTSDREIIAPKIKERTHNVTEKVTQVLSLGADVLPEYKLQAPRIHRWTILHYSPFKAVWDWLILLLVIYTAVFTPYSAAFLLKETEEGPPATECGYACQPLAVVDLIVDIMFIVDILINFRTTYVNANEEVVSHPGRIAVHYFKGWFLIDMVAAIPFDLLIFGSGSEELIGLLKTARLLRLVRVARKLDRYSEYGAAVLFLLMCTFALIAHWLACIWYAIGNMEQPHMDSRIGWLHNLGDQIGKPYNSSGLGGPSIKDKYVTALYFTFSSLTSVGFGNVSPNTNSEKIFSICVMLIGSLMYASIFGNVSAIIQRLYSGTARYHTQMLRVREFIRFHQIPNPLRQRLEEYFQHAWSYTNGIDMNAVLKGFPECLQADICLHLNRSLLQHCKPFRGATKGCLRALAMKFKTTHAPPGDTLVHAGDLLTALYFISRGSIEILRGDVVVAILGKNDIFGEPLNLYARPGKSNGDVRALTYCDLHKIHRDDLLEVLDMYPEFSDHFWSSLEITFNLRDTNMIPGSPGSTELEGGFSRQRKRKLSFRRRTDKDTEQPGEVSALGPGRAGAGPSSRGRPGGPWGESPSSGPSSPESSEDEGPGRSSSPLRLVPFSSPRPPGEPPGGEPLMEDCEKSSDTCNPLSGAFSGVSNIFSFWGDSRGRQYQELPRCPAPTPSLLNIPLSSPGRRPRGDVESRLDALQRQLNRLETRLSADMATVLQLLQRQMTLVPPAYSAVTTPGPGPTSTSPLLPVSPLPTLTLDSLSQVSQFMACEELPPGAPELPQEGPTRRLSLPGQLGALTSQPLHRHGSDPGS

## COc1ccc(CCCNC(C)CCc2ccccc2)cc1 (stereo not shown) [Compound 52]
[1]
  Ki: 3.2 ± 0.1 µM
[2]; [6]
  Ki: 0.026 ± 0.002 µM

## CC(Cc1ccccc1)NCCOc1ccccc1 (stereo not shown) [Compound 19]
[1]
  Ki: 4.1 ± 0.3 µM
[2]; [6]
  Ki: 0.059 ± 0.007 µM

## CC(CCc1ccccc1)NCCc1ccccc1 (stereo not shown) [Compound 48]
[1]
  Ki: 1.6 ± 0.33 µM
[2]; [6]
  Ki: 0.05 ± 0.004 µM

## C[C@@H](Cc1ccccc1)NCCCc1ccccc1 [Compound 6]
[1]
  Ki: 0.75 ± 0.14 µM
[2]; [6]
  Ki: 0.065 ± 0.004 µM

## COc1ccc(CCCNC(C)Cc2ccc([N+](=O)[O-])cc2)cc1 (stereo not shown) [Compound 43]
[1]
  Ki: 1.4 ± 0.4 µM
[2]; [6]
  Ki: 0.008 ± 0.002 µM

## CC(Cc1ccccc1)N(C)CCCc1ccccc1 (stereo not shown) [Compound 7]
[1]
  Ki: 1.56 ± 0.47 µM
[2]; [6]
  Ki: 0.096 ± 0.01 µM

## CC(Cc1ccc(O)cc1)NCCCc1ccccc1 (stereo not shown) [Compound 37]
[1]
  Ki: 0.82 ± 0.27 µM
[2]; [6]
  Ki: 0.033 ± 0.008 µM

## COc1ccc(CCC(C)NCCCc2ccccc2)cc1 (stereo not shown) [Compound 32]
[1]
  Ki: 4.7 ± 0.4 µM
[2]; [6]
  Ki: 0.03 ± 0.002 µM

## COc1ccc(CCC(C)NCCc2ccccc2)cc1 (stereo not shown) [Compound 31]
[1]
  Ki: 2.4 ± 0.1 µM
[2]; [6]
  Ki: 0.062 ± 0.029 µM

## COc1ccc(CCCNC(C)Cc2ccc(OC)cc2)cc1 (stereo not shown) [Compound 29]
[1]
  Ki: 0.41 ± 0.14 µM
[2]; [6]
  Ki: 0.011 ± 0.002 µM

## COc1ccc(CC(C)NCCCc2ccccc2)cc1OC (stereo not shown) [Compound 46]
[1]
  Ki: 3.8 ± 0.1 µM
[2]; [6]
  Ki: 0.14 ± 0.013 µM

## COc1ccc(CC(C)NCCc2ccccc2)cc1 (stereo not shown) [Compound 24]
[1]
  Ki: 3.77 ± 0.99 µM
[2]; [6]
  Ki: 0.074 ± 0.002 µM

## CC(Cc1ccc(F)cc1)NCCc1ccccc1 (stereo not shown) [Compound 38]
[1]
  Ki: 2.5 ± 1.6 µM
[2]; [6]
  Ki: 0.069 ± 0.009 µM

## CC(Cc1ccccc1)NCCCc1ccccc1 (stereo not shown) [Compound 4]
[1]
  Ki: 1.13 ± 0.31 µM
[2]; [6]
  Ki: 0.007 ± 0.002 µM

## COc1ccc(CCCNC(C)Cc2ccc(O)cc2)cc1 (stereo not shown) [Compound 36]
[1]
  Ki: 0.23 ± 0.06 µM
[2]; [6]
  Ki: 0.072 ± 0.03 µM

## CC(Cc1ccc(Br)cc1)NCCCc1ccccc1 (stereo not shown) [Compound 11]
[1]
  Ki: 0.7 ± 0.063 µM
[2]; [6]
  Ki: 0.008 ± 0.001 µM

## CC(Cc1ccncc1)NCCCc1ccc(F)cc1 (stereo not shown) [Compound 186]
[2]; [7]
  Ki: 0.0724 ± 0.0298 µM
[3]
  Ki: 3.32 ± 1.93 µM
[4]
  CLint scaled at 0.08 µM: 0.258 L/h/kg
  half-life at 0.08 µM: 4.8 h

## FCC(Cc1ccc(-c2cccnc2)cc1)NCCCc1ccc(F)cc1 (stereo not shown) [Compound 84]
[5]
  CLint scaled at 0.08 µM: 10.4 L/h/kg
[4]
  Microsomal stability assays: Half-life: 0.1 h

## CC(Cc1ccc([N+](=O)[O-])cc1)NCCc1ccccc1 (stereo not shown) [Compound 41]
[1]
  Ki: 5.1 ± 1.2 µM
[2]; [6]
  Ki: 0.06 ± 0.007 µM

## CC(Cc1ccc(Br)cc1)NCCOc1ccccc1 (stereo not shown) [Compound 20]
[1]
  Ki: 2 ± 0.1 µM
[2]; [6]
  Ki: 0.013 ± 0.009 µM

## FCC(Cc1ccc(F)cc1)NCCCc1ccnc2ccccc12 (stereo not shown) [Compound 149]
[5]
  CLint scaled at 0.08 µM: 9.72 L/h/kg
[4]
  Microsomal stability assays: Half-life: 0.1 h

## CC(Cc1ccc(F)cc1)NCCCc1ccc(Cl)cc1 (stereo not shown) [Compound 188]
[2]; [7]
  Ki: 0.022 ± 0.00772 µM
[3]
  Ki: 0.467 ± 0.28 µM
[4]
  CLint scaled at 0.08 µM: 0.282 L/h/kg
  half-life at 0.08 µM: 4.4 h

## CC(Cc1ccc(NC=O)cc1)NCCCc1ccc(F)cc1 (stereo not shown) [Compound 88]
[2]; [7]
  Ki: 0.0127 ± 0.00285 µM
[3]
  Ki: 0.738 ± 0.244 µM
[4]
  CLint scaled at 0.08 µM: 0.804 L/h/kg
  half-life at 0.08 µM: 1.6 h

## CC(Cc1ccccc1)NCCCc1ccc(I)cc1 (stereo not shown) [Compound 213]
[2]; [7]
  Ki: 0.0222 ± 0.00221 µM
[3]
  Ki: 0.642 ± 0.168 µM
[4]
  Microsomal stability assays: Clearance: <0.312 L/h/kg
  Microsomal stability assays: Half-life: >4 h

## CC(Cc1ccc(N)cc1)NCCCc1ccccc1 (stereo not shown) [Compound 45]
[1]
  Ki: 2.8 ± 0.7 µM
[2]; [6]
  Ki: 0.036 ± 0.003 µM

## CC(Cc1ccc(NC=O)cc1)NCCCc1ccc(F)cc1 (stereo not shown) [Compound 89]
[2]; [7]
  Ki: 0.0127 ± 0.00285 µM
[3]
  Ki: 0.738 ± 0.244 µM
[4]
  Microsomal stability assays: Clearance: 0.84 L/h/kg
  Microsomal stability assays: Half-life: 1.5 h

## CC(Cc1ccc(N)cc1)NCCCc1ccc(F)cc1 (stereo not shown) [Compound 112]
[2]; [7]
  Ki: 0.0167 ± 0.00334 µM
[3]
  Ki: 2.5 ± 0.435 µM
[4]
  Microsomal stability assays: Clearance: 1.41 L/h/kg
  Microsomal stability assays: Half-life: 0.9 h

## CC(Cc1ccccc1)NCCc1ccc(OCc2ccccc2)c(OCc2ccccc2)c1 (stereo not shown) [Compound 22]
[1]
  Ki: 2 ± 0.1 µM
[2]; [6]
  Ki: 0.12 ± 0.001 µM

## Fc1ccc(CCCNC(Cc2ccc(F)cc2)C(F)F)cc1 (stereo not shown) [Compound 82]
[5]
  CLint scaled at 0.08 µM: 1.58 L/h/kg
[4]
  half-life at 0.08 µM: 0.8 h

## CC(CCc1ccccc1)N(C)CCCc1ccccc1 (stereo not shown) [Compound 51]
[1]
  Ki: 17.2 ± 6.33 µM
[2]; [6]
  Ki: 0.36 ± 0.034 µM

## CC(Cc1ccc(N)cc1)NCCCc1ccccc1 (stereo not shown) [Compound 105]
[2]; [7]
  Ki: 0.0268 ± 0.00649 µM
[3]
  Ki: 4.61 ± 1.01 µM
[4]
  CLint scaled at 0.08 µM: 1.78 L/h/kg
  half-life at 0.08 µM: 0.7 h

## CC(Cc1ccccc1)NCCCc1ccc(I)cc1 (stereo not shown) [Compound 214]
[2]; [7]
  Ki: 0.00686 ± 0.00181 µM
[3]
  Ki: 3.04 ± 1.37 µM
[4]
  Microsomal stability assays: Clearance: 1.06 L/h/kg
  Microsomal stability assays: Half-life: 1.2 h

## COc1ccc(CCCNC(C)Cc2ccc(Br)cc2)cc1 (stereo not shown) [Compound 16]
[1]
  Ki: 0.46 ± 0.08 µM
[2]; [6]
  Ki: 0.012 ± 0.003 µM
